Test results published in US12083091B2, “Inhibitors of glucosylceramide degradation in the treatment of diseases of the motor units” (priority 2016, dated 2024).

Tests used:
[1] = system: GCase; test: Total GCase activity in the spinal cord after CBE treatment; assay type: in vivo, mice; conditions: CBE 10 mg/kg/day, intraperitoneal
[2] = system: SOD1 mice; test: SOD1(G86R) mice, animal model of ALS: disease onset, motor function, motor unit histology, survival; assay type: in vivo
Procedure: Ambroxol was given orally in the drinking water. […] Non-transgenic littermates served as controls. […] Average speed, paw swing and stride length were measured. […] Non-transgenic littermates served as controls.
Spinal cord: Lumbar spinal cord fixed in paraformaldehyde 4% were used for studying the distribution of GM1a around motor neurons. Coronal section 40 μm thick were realized with a vibratome and were stained with an anti-[…] (1/100, Millipore, France) and an alexa594 conjugated goat (1/200, Jackson) antibodies. GM1a was detected with the cholera toxin sub-unit beta coupled with an Allexa488 dye (1/200, ThermoFisher). Fluorescence intensity of GM1a was calculated with an image processing program (ImageJ). For motor neuron couting, all neurons located in the ventral horn, that were >400 μm^2 in size and ChAT positive were considered as alpha motor neurons. Six sections of spinal cord that were apart over a length of 0.24 mm were counted.
Muscle bundles: Tibialis anterior muscles fixed in paraformaldehyde 4% were dissected into bundles under a binocular microscope. Bundles were collected from at least three different parts of the muscle. Acetylcholine receptors in the postsynaptic apparatus of neuromuscular junctions were labeled with rhodamine-conjugated α-bungarotoxin (Sigma-Aldrich). Immunofluorescent labeling of nerve terminals was performed with a rabbit polyclonal anti-synaptophysin antibody diluted 1/200 (Abcam, Cambridge, UK), and Alexa conjugated goat anti-rabbit diluted 1/500 (Jackson). Neuromuscular junction integrity was assessed by studying the colocalization of synaptophysin and bungarotoxin signal. […].
Coronal muscle sections: Twenty-micrometer sections were obtained by cutting isopentane fresh-frozen tibialis anterior muscles perpendicular to the muscle axis with a cryostat at −20° C. (Leica, Nanterre, France). Acetylcholine receptors in the postsynaptic apparatus of neuromuscular junctions were labeled with rhodamine-conjugated α-bungarotoxin (Sigma-Aldrich). GM1a distribution was labeled with the cholera toxin sub-unit beta coupled with an Allexa488 dye (1/200, ThermoFisher).

[3] = system: non-transgenic mice; test: Sciatic nerve injury (crush) in non-transgenic mice: functional recovery and re-innervation; assay type: in vivo
Procedure: Sciatic Nerve Injury: Peripheral nerve injury was performed in order to induce muscle denervation and axonal regeneration. Non-transgenic mice were anesthetized with ketamine chlorohydrate (100 mg/kg) and xylazine (5 mg/kg). The sciatic nerve was exposed at mid-thigh level and crushed with fine forceps for 30 s. The skin incision was sutured, and mice were allowed to recover. The hind limb, contralateral to the lesion, served as control. Mice were treated with CBE (10 mg/kg/d) for 12 days, or with ambroxol (120-150 mg/kg/day) for 10 days, starting the day before surgery. Mice were followed on a daily basis. Body mass, muscle strength of individual hind limbs (mean of three tests was recorded), and locomotor profile (catwalk, Noldus) were analyzed.
Here, we sought to determine the effect of CBE on the motor recovery after nerve injury in non-transgenic mice. CBE was administrated on a daily basis (10 mg/kg/day), from […] until the end of the study, 12 days after injury.

[4] = system: muscle and spinal transcriptomes of SOD1 mice; test: Muscle and spinal transcriptomes of SOD1 mice after CBE treatment (GO biological functions of restored genes); assay type: in vivo; conditions: spinal cord and muscle
[5] = system: non-transgenic mice; conditions: mouse, in vivo
[6] = system: co-culture of spinal explants and myoblasts; test: Co-culture of spinal explants and myoblasts: neurite network / area of innervation; assay type: cell-based; conditions: ambroxol 100 μM in culture medium
Procedure: We next sought to determine whether another inhibitor of GlcCer degradation could support axonal plasticity and improve the phenotype of SOD1 mice. We used ambroxol, which is an inhibitor of GBA2 activity (Narita, A. et al. Ambroxol chaperone therapy for neuronopathic Gaucher disease: A pilot study. Ann. Clin. Transl. Neurol. 3, 200-215 (2016)). First, ambroxol (100 μM) was added to the culture medium of a co-culture of spinal explants and myoblasts. […] Next, ambroxol was given per os to SOD1 mice (120-150 mg/kg/day) from day 75 to day 95. […] In a second cohort of mice, the treatment was initiated at disease onset to study ambroxol's effect on late disease stage and survival. […] Next, ambroxol was given to mice subjected to sciatic nerve injury in order to determine its effects on peripheral nerve regeneration.

[7] = CBE 10 mg/kg/day, 12 days after injury
[8] = CBE 10 mg/kg/day, until 12 days after injury, vs placebo
[9] = ambroxol, second cohort, treatment initiated at disease onset
[10] = ambroxol 120-150 mg/kg/day for 10 days

SMILES: OC1C(O)C(O)C2OC2C1O (centres unmarked) [CBE, 1,2-anhydro-myo-inositol]
- GCase activity in the spinal cord [1]: decrease
- fibrillation events (electromyogram), sign of muscle denervation, vs SOD1 placebo group ([2]; CBE 10 mg/kg/day i.p., 95 days of age): less frequently detected
- number of fully innervated NMJs ([2]; CBE 10 mg/kg/day i.p., 95 days of age, tibialis anterior): comparable to wild type and significantly higher to SOD1 mice receiving the placebo
- loss of large motor neurons in lumbar spinal cord compared to wild type ([2]; CBE 10 mg/kg/day i.p., 95 days of age, placebo SOD1 almost 60% loss): 30%
- presence of axonal GM1a at presynaptic axons of NMJs ([2]; CBE 10 mg/kg/day i.p., SOD1 mice): clearly detectable
- development of locomotor impairments (average speed, stride length, paw swing; catwalk) ([2]; CBE 10 mg/kg/day i.p., SOD1 mice at 95 days of age): completely prevented
- delay of disease onset (onset of muscle strength loss) compared to the placebo group ([2]; CBE 10 mg/kg/day i.p., from 75 to 95 days of age): 6 days
- astrocyte activation (GFAP staining fluorescence intensity) ([2]; CBE 10 mg/kg/day i.p., spinal cord ventral horn): no influence
- locomotor profile of the injured paw (contact area, hindlimb step cycle) [3, 7]: closer to the contralateral side
- muscle fibrillation at sacrifice [3, 7]: less muscle fibrillation
- muscle strength recovery after sciatic nerve injury [3, 8]: occurred faster, by several days
- time to toe spreading after sciatic nerve injury [3, 8]: occurred faster, by several days
- global transcriptomic deregulations in SOD1 mice [4]: partially corrected
- loss of motor function in non-transgenic mice [5]: without inducing loss of motor function
- side effects (body mass and muscle strength evolution upon treatment) [5]: does not induce side effects

SMILES: Nc1c(Br)cc(Br)cc1CN[C@H]1CC[C@H](O)CC1 [ambroxol, trans-4-(2-Amino-3,5-dibrombenzylamino)-cyclohexanol]
- innervation status (NMJ integrity) ([2]; ambroxol 120-150 mg/kg/day per os, day 75 to 95, at 95 days of age): improved
- delay of first loss of muscle strength (disease onset) compared to placebo ([2]; ambroxol 120-150 mg/kg/day per os, day 75 to day 95): ~10 days
- improvement of total survival [2, 9]: more than 8 days
- muscle strength [2, 9]: significantly improved
- muscle strength of ipsilateral hind paws after sciatic nerve injury [3, 10]: significantly improved
- peripheral nerve regeneration after injury [3, 10]: significantly improves
- correct muscle re-innervation ([3]; ambroxol 120-150 mg/kg/day, ten days after injury): significantly improves
- neurite network (total area of innervation) of co-culture [6]: improved
